From ChEMBL document CHEMBL1159187, “Novel polyamine derivatives as potent competitive inhibitors of Trypanosoma cruzi trypanothione reductase” (Bioorg Med Chem Lett, 1995)
Activity calls are given as the source filed them. No cut-off for these calls is given here.

What was measured:
Trypanothione reductase = Trypanothione reductase (Trypanosoma cruzi, UniProt P28593); test: Compound was evaluated for the competitive inhibition of trypanothione reduction by recombinant Trypanothione reductase from Trypanosoma cruzi
Trypanothione reductase, sequence (P28593 whole entry): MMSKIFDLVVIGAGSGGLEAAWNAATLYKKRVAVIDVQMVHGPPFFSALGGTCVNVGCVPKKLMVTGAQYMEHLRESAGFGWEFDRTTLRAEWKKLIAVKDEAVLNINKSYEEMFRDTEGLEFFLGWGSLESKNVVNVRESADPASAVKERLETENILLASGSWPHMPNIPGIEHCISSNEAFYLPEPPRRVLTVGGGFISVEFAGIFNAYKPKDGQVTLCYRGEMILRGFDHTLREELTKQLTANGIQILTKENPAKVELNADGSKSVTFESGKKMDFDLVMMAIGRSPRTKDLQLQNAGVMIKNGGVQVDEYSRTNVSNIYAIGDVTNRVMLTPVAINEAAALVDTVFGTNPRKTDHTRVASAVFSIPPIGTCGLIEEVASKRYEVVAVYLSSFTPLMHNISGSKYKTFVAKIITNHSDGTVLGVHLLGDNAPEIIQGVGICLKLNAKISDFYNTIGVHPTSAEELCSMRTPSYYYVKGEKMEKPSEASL

[1] = target: Glutathione reductase (Saccharomyces cerevisiae) (UniProt P41921); test: Compound was evaluated for the competitive inhibition of glutathione reductase from yeast; No inhibition
Glutathione reductase (Saccharomyces cerevisiae), sequence (P41921 whole entry, looked up): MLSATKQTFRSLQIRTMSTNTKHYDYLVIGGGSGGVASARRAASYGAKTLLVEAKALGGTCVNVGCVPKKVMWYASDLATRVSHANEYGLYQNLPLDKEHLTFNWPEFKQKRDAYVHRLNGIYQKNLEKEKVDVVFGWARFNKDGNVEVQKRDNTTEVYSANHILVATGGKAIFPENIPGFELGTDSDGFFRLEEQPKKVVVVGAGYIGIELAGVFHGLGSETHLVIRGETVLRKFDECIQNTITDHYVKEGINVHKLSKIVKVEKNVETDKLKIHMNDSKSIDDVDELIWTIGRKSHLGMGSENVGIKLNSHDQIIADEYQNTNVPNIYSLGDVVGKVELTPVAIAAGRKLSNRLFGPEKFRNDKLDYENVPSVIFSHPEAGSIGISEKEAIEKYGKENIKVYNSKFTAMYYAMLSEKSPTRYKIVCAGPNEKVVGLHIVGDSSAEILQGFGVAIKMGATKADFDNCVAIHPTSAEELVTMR

SMILES	Ki (Trypanothione reductase)	Activity [1]
c1ccc2cc(CNCCCCNCCCNCc3ccc4ccccc4c3)ccc2c1	9.5 µM	inactive
NCCCCN(CCCN)Cc1ccc2ccccc2c1	108 µM	–
NCCCN(CCCCN(CCCN)Cc1ccccc1)Cc1ccccc1	19 µM	–
NCCCCN(CCCN)C(=O)OCc1ccccc1	280 µM	–

Other lines, results leading:

Ki (Trypanothione reductase)	Activity [1]	SMILES
> 2000 µM	–	O=C(NCCCCNCCCNC(=O)c1ccccc1)c1ccccc1
3.5 µM	inactive	NCCCN(CCCCN(CCCN)CCCc1ccccc1)CCCc1ccccc1
5.5 µM	inactive	NCCCN(CCCCN(CCCN)Cc1ccc2ccccc2c1)Cc1ccc2ccccc2c1
